Measured values taken from the CheMixHub viscosity set.

Assay: xn = mol fraction of the nth substance listed

O=Cc1ccccc1 + CS(C)=O
viscosity [mPa·s], 101.33 kPa
Settings | x2 = 0.1 | x2 = 0.2 | x2 = 0.3 | x2 = 0.4 | x2 = 0.5 | x2 = 0.6 | x2 = 0.7 | x2 = 0.8 | x2 = 0.9
298.15 K | 1.443 | 1.51 | 1.562 | 1.62 | 1.679 | 1.739 | 1.801 | 1.864 | 1.938
308.15 K | 1.22 | 1.266 | 1.314 | 1.362 | 1.411 | 1.461 | 1.51 | 1.56 | 1.609
318.15 K | 1.066 | 1.101 | 1.135 | 1.17 | 1.207 | 1.243 | 1.28 | 1.317 | 1.354

OCCOCCO + CS(C)=O
308.15 K, 101 kPa
Settings | viscosity [mPa·s]
x2 = 0.0978 | 16.69
x2 = 0.1794 | 15.85
x2 = 0.2569 | 14.94
x2 = 0.3945 | 13.49
x2 = 0.4797 | 12.36
x2 = 0.5804 | 10.83
x2 = 0.6748 | 8.995
x2 = 0.7945 | 6.227
x2 = 0.9146 | 3.442

[Cl-].[Cl-].[Cl-].[Cl-].[Ge+4] + CSC
293.15 K, 101 kPa
Settings | viscosity [mPa·s]
x2 = 0.203 | 0.526
x2 = 0.3575 | 0.483
x2 = 0.4983 | 0.433
x2 = 0.6857 | 0.379
x2 = 0.8554 | 0.328

CCCC[N+](CCCC)(CCCC)CCCC.[Cl-] + CSCC[C@H](N)C(=O)O
Settings | viscosity [mPa·s]
323.15 K, 101 kPa, x1 = 0.9 | 529

CCCC[N+](CCCC)(CCCC)CCCC.[Cl-] + C[C@@H](O)[C@H](N)C(=O)O
Settings | viscosity [mPa·s]
313.15 K, 101 kPa, x1 = 0.9 | 633

CC(O)C(C)O (stereo not given) + C[N+](C)(C)CCO.[Cl-]
viscosity [mPa·s], 101.3 kPa
Settings | 303.15 K | 308.15 K | 313.15 K | 318.15 K | 323.15 K
x2 = 0.2 | 71.79 | 53.5 | 40.72 | 31.73 | 25.22
x2 = 0.25 | 84.88 | 63.93 | 48.73 | 38.16 | 30.43

OCCOCCO + C[N+](C)(C)CCO.[Cl-]
viscosity [mPa·s], 101 kPa
Settings | 293.15 K | 298.15 K | 303.15 K | 313.15 K | 323.15 K
x1 = 0.667 | 52.49 | – | 50.39 | 35.69 | 25.79
x2 = 0.25 | – | 55.1 | – | – | –

CC(C)CCCC(C)CCCC(C)CCCC(C)C (stereo not given) + Cc1ccccc1
viscosity [mPa·s], 100 kPa
Settings | 298.15 K | 313.15 K
x2 = 0.4932 | 2.255 | 1.658
x2 = 0.7449 | 1.263 | 0.974

Cc1ccc(C)cc1 + Cc1ccccc1
Settings | viscosity [mPa·s]
293.15 K, 101.33 kPa, x2 = 0.1516 | 0.636
293.15 K, 101.33 kPa, x2 = 0.3137 | 0.624
293.15 K, 101.33 kPa, x2 = 0.6003 | 0.6
293.15 K, 101.33 kPa, x2 = 0.8519 | 0.588
298.15 K, 101 kPa, x1 = 0.1 | 0.5595
298.15 K, 101 kPa, x1 = 0.2 | 0.565
298.15 K, 101 kPa, x1 = 0.3 | 0.5703
298.15 K, 101 kPa, x1 = 0.4 | 0.5756
298.15 K, 101 kPa, x1 = 0.5 | 0.5807
298.15 K, 101 kPa, x1 = 0.6 | 0.5857
298.15 K, 101 kPa, x1 = 0.7 | 0.5907
298.15 K, 101 kPa, x1 = 0.8 | 0.5955
298.15 K, 101 kPa, x1 = 0.9 | 0.6001
303.15 K, 101.33 kPa, x2 = 0.1516 | 0.56
303.15 K, 101.33 kPa, x2 = 0.3137 | 0.547
303.15 K, 101.33 kPa, x2 = 0.6003 | 0.532
303.15 K, 101.33 kPa, x2 = 0.8519 | 0.526
313.15 K, 101.33 kPa, x2 = 0.1516 | 0.509
313.15 K, 101.33 kPa, x2 = 0.3137 | 0.5
313.15 K, 101.33 kPa, x2 = 0.6003 | 0.491
313.15 K, 101.33 kPa, x2 = 0.8519 | 0.47
323.15 K, 101.33 kPa, x2 = 0.1516 | 0.459
323.15 K, 101.33 kPa, x2 = 0.3137 | 0.45
323.15 K, 101.33 kPa, x2 = 0.6003 | 0.437
323.15 K, 101.33 kPa, x2 = 0.8519 | 0.423

O=Cc1ccccc1 + Cc1ccccc1
293.15 K, 100 kPa
Settings | viscosity [mPa·s]
x1 = 0.1053 | 0.652
x1 = 0.2063 | 0.721
x1 = 0.2998 | 0.768
x1 = 0.4022 | 0.844
x1 = 0.4995 | 0.92
x1 = 0.6003 | 1.017
x1 = 0.6939 | 1.108
x1 = 0.8082 | 1.256
x1 = 0.9002 | 1.367

CCCCCCCCCCCCCCCCCC(=O)OC + ClC(Cl)=C(Cl)Cl
viscosity [mPa·s], 101 kPa
Settings | x1 = 0.05 | x1 = 0.1 | x1 = 0.15 | x1 = 0.2 | x1 = 0.25 | x1 = 0.3
298 K | 1.41 | 1.65 | 1.8 | 2.14 | 2.62 | 2.93
303 K | 1.33 | 1.55 | 1.68 | 2.01 | 2.36 | 2.63
308 K | 1.24 | 1.47 | 1.58 | 1.89 | 2.16 | 2.4
313 K | 1.17 | 1.39 | 1.47 | 1.76 | 1.97 | 2.2

CCCCCCCCCCCCCCCCCC(=O)OC + ClC=C(Cl)Cl
viscosity [mPa·s], 101 kPa
Settings | x1 = 0.05 | x1 = 0.1 | x1 = 0.15 | x1 = 0.2 | x1 = 0.25 | x1 = 0.3
298 K | 0.77 | 1.04 | 1.37 | 1.73 | 2.09 | 2.61
303 K | 0.74 | 0.98 | 1.3 | 1.6 | 1.9 | 2.39
308 K | 0.71 | 0.93 | 1.21 | 1.5 | 1.77 | 2.2
313 K | 0.68 | 0.89 | 1.14 | 1.4 | 1.66 | 2.01

O=Cc1ccccc1 + ClCCCl
viscosity [mPa·s], 101 kPa
Settings | x1 = 0.3909 | x1 = 0.8163 | x1 = 0.8165 | x1 = 0.9064
293.15 K | 1.085 | 1.445 | – | –
303.15 K | – | – | 1.225 | 1.285

CC(F)F + FC(F)C(F)(F)F
viscosity [mPa·s], 101 kPa
Settings | x2 = 0.248 | x2 = 0.504 | x2 = 0.758
298.15 K | 0.1447 | 0.1487 | 0.1533
313.15 K | 0.1172 | 0.1234 | 0.13

CC(F)F + FCC(F)(F)F
viscosity [mPa·s], 101 kPa
Settings | x1 = 0.259 | x1 = 0.5 | x1 = 0.75
298.15 K | 0.1801 | 0.1772 | 0.1647
313.15 K | 0.1504 | 0.1444 | 0.1397
